Read-outs that look alike come from different tables or passages of the source.
Assays:
[1] = rats, oral 10 mg/kg; cited from earlier work
[2] = dog, intravenous 3 mg/kg; cited from earlier work
CYP1A2 = target: T1, CYP1A2 (Homo sapiens, UniProt P05177); conditions: cited from earlier work
T1 sequence (P05177 1-516): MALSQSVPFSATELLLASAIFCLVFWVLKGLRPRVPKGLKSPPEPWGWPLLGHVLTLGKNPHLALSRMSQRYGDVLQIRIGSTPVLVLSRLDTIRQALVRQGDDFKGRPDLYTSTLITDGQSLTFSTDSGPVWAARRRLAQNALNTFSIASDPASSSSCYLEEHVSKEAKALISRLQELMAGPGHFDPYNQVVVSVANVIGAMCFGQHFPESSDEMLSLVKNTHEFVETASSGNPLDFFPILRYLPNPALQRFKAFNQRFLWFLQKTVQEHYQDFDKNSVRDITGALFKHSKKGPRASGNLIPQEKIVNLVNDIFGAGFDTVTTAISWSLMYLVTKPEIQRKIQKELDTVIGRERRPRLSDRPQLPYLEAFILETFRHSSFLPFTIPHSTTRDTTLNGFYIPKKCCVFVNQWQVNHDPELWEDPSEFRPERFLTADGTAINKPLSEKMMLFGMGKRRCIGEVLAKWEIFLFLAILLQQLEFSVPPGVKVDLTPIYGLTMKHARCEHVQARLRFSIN

[3] = cited from earlier work
[4] = system: mouse-adapted DENV-2 strain D2S10; conditions: for Survival at day 20: IV, 19 days after challenge
[5] = rat, injected 5 mg/kg; cited from earlier work
[6] = dogs, oral 10 mg/kg; cited from earlier work
[7] = cited from earlier work; remark: listed apart in the source
[8] = monkeys, oral 10 mg/kg; cited from earlier work
[9] = man, intravenous administration; cited from earlier work
[10] = monkey, intravenous 3 mg/kg; cited from earlier work

## COc1ccc2[nH]cc(CCNC(C)=O)c2c1 [Melatonin, N-acetyl-5-methoxytryptamine]
[1]
  absolute bioavailability: moderate
[2]
  apparent elimination half-life: 18.6 min
CYP1A2
  enzyme mediating 6-hydroxylation and O-demethylation: mainly CYP1A2 mediated
[3]; healthy volunteers, oral capsules 20, 30, 50, 100 mg, across all doses
  median (range) elimination half life: 51.7 (29.5-63.2) minutes
[3]; human
  unchanged melatonin renal clearance: lower than 1%
[3]; oral 3 mg/volunteer
  time of rapid decrease in serum melatonin: 240 min
  time to increase in serum melatonin after oral administration: ≤ 20 min
[3]; oral 100 mg
  half-life in blood: around 41 minutes
  time to maximum blood and saliva concentrations: 60 min
[3]; oral capsules 20 mg
  AUC: 1102 to 13616 ng/mL/min
[3]; oral capsules 30 mg
  AUC: 822 to 2491 ng/mL/min
[3]; oral capsules 50 mg
  AUC: 1812 to 8915 ng/mL/min
[3]; oral capsules 100 mg
  AUC: 4458 to 18229 ng/mL/min
[3]; oral, female
  absolute human bioavailability, average: 8.6%
[3]; oral, male
  absolute human bioavailability, average: 16.8%
[3]; oral
  absolute human bioavailability, range: 1-37%
  inter-subject variation of AUC of individual subjects: up to 25 times
[4]; 75 mg/kg body weight
  Survival at day 20: 4/6
[4]; 100 mg/kg body weight
  Survival at day 20: 6/6
[4]; 150 mg/kg body weight
  Survival at day 20: 6/6
[4]; 100 and 150 mg/Kg/day, 19 days treatment
  protection effects versus Dengue virus induced condition: Complete survival
[5]
  apparent elimination half-life: 19.8 min
[6]
  absolute bioavailability: high
[7]
  solubility in water: 1200 to 2400 µg/mL
[8]
  absolute bioavailability: high
[9]
  elimination half-life: about 40 minutes
[10]
  apparent elimination half-life: 33.9 min
